# Results: patent publication US20240400560A1, “BICYCLIC HETEROCYCLIC DERIVATIVE HAVING VIRAL GROWTH INHIBITORY ACTIVITY AND PHARMACEUTICAL COMPOSITION CONTAINING SAME” (Shionogi & Co., Ltd., priority 2021, published 2024)
# Where two headings read alike, the source gives them in different places.
# Key:
# [1] = test system: SARS-CoV-2; test: Inhibitory activity of cytopathic effect (CPE) in HEK293T/ACE2-TMPRSS2 cells; type: cell-based; conditions: Severe acute respiratory syndrome coronavirus 2, HEK-293T, 72 h
# [2] = molecular target: SARS-CoV-2 3CL protease (Severe acute respiratory syndrome coronavirus 2, UniProt P0DTD1); test: Inhibitory activity test against SARS-CoV-2 3CL proteases; type: biochemical
# [3] = HEK293T/ACE2-TMPRSS2 cells, cultured 3 days, CellTiter-Glo 2.0 luminescence, read-out: EC50 (50% SARS-CoV-2 infected cell death inhibitory concentration)
# [4] = read-out: IC50 (50% SARS-CoV-2 3CL protease inhibitory concentration)
# [5] = IC50 (50% SARS-CoV-2 3CL protease inhibitory concentration)
Compound,"IC50 [2, 4] [nM]",further results
COC[C@@H]1CCN(c2cc3c(c(OC)n2)c(=O)n(-c2cncc(Cl)c2)c(=O)n3-c2ccc(F)c(Cl)c2)C1 [Compound I-1008],< 100,"EC50 [1, 3]: < 100 nM"
COc1nc2c(=O)n(Cc3ncn(C)n3)c(=O)n(Cc3cc(C#N)c(F)cc3Cl)c2cc1-c1cc(C#N)ccc1Cl [Compound I-0722],< 100,"EC50 [1, 3]: < 100 nM"
COc1nc(N2CC[C@@H](C#N)C2)cc2c1c(=O)n(-c1cncc(OCF)c1)c(=O)n2-c1ccc(F)c(Cl)c1 [Compound I-0941],< 100,"EC50 [1, 3]: < 100 nM"
COc1nc(N2CC[C@@H](O)C2)cc2c1c(=O)n(-c1cncc(C(F)F)c1)c(=O)n2-c1ccc(F)c(Cl)c1 [Compound I-0964],< 100,"EC50 [1, 3]: < 100 nM"
Cn1cnc(Cn2c(=O)c3c(cc(-c4cc(C#N)ccc4Cl)n4ncnc34)n(Cc3cc(F)c(F)c(F)c3)c2=O)n1 [Compound I-0645],100 to 1000,"EC50 [1, 3]: 100 to 1000 nM"
COc1nc(N2[C@@H]3CC[C@H]2CNC3)cc2c1c(=O)n(-c1cnc3ccc(Cl)cn13)c(=O)n2Cc1cc(Cl)ccc1Cl [Compound I-0649],–,"EC50 ([1]; read-out: EC50 (50% SARS-CoV-2 infected cell death inhibitory concentration)): < 100 nM; IC50 [2, 5]: < 100 nM"
COc1nc(N2CC(C)(OC)C2)cc2c1c(=O)n(-c1cnc3cc(F)ccn13)c(=O)n2-c1ccc(F)c(Cl)c1 [Compound I-0762],< 100,"EC50 [1, 3]: < 100 nM"
COc1nc(N2CCC(F)(F)C2)cc2c1c(=O)n(-c1cnc3cc(F)ccn13)c(=O)n2-c1ccc(F)c(Cl)c1 [Compound I-0728],5.1,"EC50 ([1]; 50% SARS-CoV-2 infected cell death inhibitory concentration, HEK293T/ACE2-TMPRSS2 cells, CellTiter-Glo 2.0 after 3 days culture, read-out: EC50): 7.65 nM"
CNc1cc2c(c(OC)n1)c(=O)n(-c1cnc3cc(F)ccn13)c(=O)n2-c1ccc(F)c(Cl)c1 [Compound I-1042],< 100,"EC50 [1, 3]: < 100 nM"
[2H]C([2H])([2H])O[C@@H]1CCN(c2cc3c(c(OC)n2)c(=O)n(-c2cncc(OC(F)F)c2)c(=O)n3-c2ccc(F)c(F)c2)C1 [Compound I-1038],< 100,"EC50 [1, 3]: < 100 nM"
Cn1cnc(Cn2c(=O)c3c(F)cc(-c4cc5cn[nH]c5cc4Cl)cc3n(Cc3cc(F)c(F)c(Cl)c3)c2=O)n1 [Compound I-0269],< 100,–
COc1cc(-c2c(Cl)ccc3ncccc23)cc2c1c(=O)n(-c1cncc(C)c1)c(=O)n2Cc1ccc(F)c(C#N)c1 [Compound I-0068],5.8,–
COc1cc(-c2cc(S(N)(=O)=O)ccc2Cl)cc2c1c(=O)n(Cc1ncn(C)n1)c(=O)n2Cc1cc(F)c(F)c(F)c1 [Compound I-0118],< 100,–
COc1nc(N2CC[C@@H](C(N)=O)C2)cc2c1c(=O)n(Cc1ncn(C)n1)c(=O)n2Cc1cc(F)c(F)c(Cl)c1 [Compound I-0445],22,–
NC(=O)c1ccc(Cl)c(-c2nc3c(cc2F)c(=O)n(Cc2ccc[nH]c2=O)c(=O)n3Cc2cc(F)c(F)c(F)c2)c1 [Compound I-0301],98,–
COc1nc(-c2cc3c(cc2Cl)NC(=O)C3)cc2c1c(=O)n(Cc1ncn(C)n1)c(=O)n2Cc1cc(F)c(F)c(F)c1 [Compound I-0032],9.4,–
COc1nc(N2CC[C@@H](F)C2)cc2c1c(=O)n(Cc1ncn(C)n1)c(=O)n2Cc1cc(F)c(F)c(Cl)c1 [Compound I-0484],< 100,–
Cn1cnc(Cn2c(=O)c3c(=O)[nH]c(-c4cc(C#N)ccc4Cl)cc3n(Cc3cc(F)c(F)c(F)c3)c2=O)n1 [Compound I-0177],34,–
COc1cc(-c2cc(S(C)(=N)=O)ccc2Cl)cc2c1c(=O)n(Cc1ncn(C)n1)c(=O)n2Cc1cc(F)c(F)c(F)c1 (stereo not shown) [Compound I-0207],23,–
O=C1Cc2cc(-c3cc(F)c4c(=O)n(-c5cncc(Cl)c5)c(=O)n(Cc5cc(Cl)c(F)cn5)c4c3)c(Cl)cc2N1 [Compound I-0077],< 100,–
COc1cc(-c2cc(NS(C)(=O)=O)ccc2Cl)cc2c1c(=O)n(-c1cncc(Cl)c1)c(=O)n2Cc1cc(F)c(F)c(F)c1 [Compound I-0079],< 100,–
O=c1[nH]cccc1Cn1c(=O)c2c(n(Cc3cc(F)c(F)c(F)c3)c1=O)CCCC2 [Compound I-0325],450,–
COc1cc(-c2cc(NS(C)(=O)=O)ccc2Cl)cc2c1c(=O)n(Cc1ncn(C)n1)c(=O)n2Cc1cc(F)c(F)c(F)c1 [Compound I-0136],< 100,–
COc1nc(N2CC[C@@H](C(N)=O)C2)cc2c1c(=O)n(-c1cncc(Cl)c1)c(=O)n2Cc1cc(F)c(F)c(F)c1 [Compound I-0511],< 100,–
COc1nc(C2=CC3CCC(C2)N3)cc2c1c(=O)n(-c1cncc(Cl)c1)c(=O)n2Cc1cc(F)c(F)c(F)c1 (stereo not shown) [Compound I-0464],–,"IC50 [2, 5]: 11 nM"
COc1cc(-c2cc(S(C)(=O)=O)ccc2Cl)cc2c1c(=O)n(Cc1ncn(C)n1)c(=O)n2Cc1cc(F)c(F)c(F)c1 [Compound I-0122],27,–
COc1cc(-c2cc(C(=O)NCCCO)ccc2Cl)cc2c1c(=O)n(-c1cncc(C)c1)c(=O)n2Cc1ccc(F)c(C#N)c1 [Compound I-0193],9,–
